Reference: ChEMBL document CHEMBL4825723, “Synthesis of new methoxy derivatives of trans 2,3-diaryl-2,3-dihydrobenzofurans and evaluation of their anti-inflammatory activity” (Bioorg Med Chem Lett, 2021)
Activity calls are given as the source filed them. The calls are words filed in the database; no cut-off is given here.

Key:
[1] = molecular target: T1, Nuclear factor NF-kappa-B complex (Homo sapiens) (UniProt Q00653+P19838+Q04206); experiment: Inhibition of NF-kappaB in human U-937 cells assessed as reduction in translocation of p65 NF-kappaB in from cytosol to nucleus at 0.01 uM treated followed by 3 hrs LPS stimulation by Western blot analysis; assay type: cell-based
[2] = molecular target: T1, Nuclear factor NF-kappa-B complex (Homo sapiens); experiment: Inhibition of NF-kappaB in human U-937 cells assessed as reduction in translocation of p65 NF-kappaB in from cytosol to nucleus at 0.01 uM treated followed by 3 hrs LPS stimulation hrs by immunohistochemical staining/confocal microscopy; assay type: cell-based
U-937 [3] = experiment: Anti-inflammatory activity in human U-937 cells assessed as reduction in LPS-induced ROS production at 0.01 uM followed by LPS stimulation and measured after 24 hrs relative to control; assay type: functional, cell-based
U-937 [4] = experiment: Anti-inflammatory activity in human U-937 cells assessed as reduction in LPS-induced NO production at 0.01 uM followed by LPS stimulation and measured after 24 hrs relative to control; assay type: functional, cell-based
[5] = molecular target: T1, Nuclear factor NF-kappa-B complex (Homo sapiens); experiment: Inhibition of NF-kappaB activation in human U-937 cells assessed as reduction in LPS-induced ACLY activity after 48 hrs; assay type: cell-based
[6] = molecular target: T1, Nuclear factor NF-kappa-B complex (Homo sapiens); experiment: Inhibition of NF-kappaB activation in human U-937 cells assessed as reduction in LPS-induced PGE2 production after 48 hrs; assay type: cell-based
U-937 [7] = experiment: Cytotoxicity against human U-937 cells assessed as cell viability at 0.01 uM measured after 72 hrs; assay type: cell-based; details: u-937, 72 h
[8] = molecular target: T1, Nuclear factor NF-kappa-B complex (Homo sapiens); experiment: Inhibition of NF-kappaB in human U-937 cells assessed as reduction in LPS-induced p65 expression at 0.01 uM treated followed by 3 hrs LPS stimulation by Western blot analysis; assay type: cell-based

T1 sequence (P19838 whole entry, looked up): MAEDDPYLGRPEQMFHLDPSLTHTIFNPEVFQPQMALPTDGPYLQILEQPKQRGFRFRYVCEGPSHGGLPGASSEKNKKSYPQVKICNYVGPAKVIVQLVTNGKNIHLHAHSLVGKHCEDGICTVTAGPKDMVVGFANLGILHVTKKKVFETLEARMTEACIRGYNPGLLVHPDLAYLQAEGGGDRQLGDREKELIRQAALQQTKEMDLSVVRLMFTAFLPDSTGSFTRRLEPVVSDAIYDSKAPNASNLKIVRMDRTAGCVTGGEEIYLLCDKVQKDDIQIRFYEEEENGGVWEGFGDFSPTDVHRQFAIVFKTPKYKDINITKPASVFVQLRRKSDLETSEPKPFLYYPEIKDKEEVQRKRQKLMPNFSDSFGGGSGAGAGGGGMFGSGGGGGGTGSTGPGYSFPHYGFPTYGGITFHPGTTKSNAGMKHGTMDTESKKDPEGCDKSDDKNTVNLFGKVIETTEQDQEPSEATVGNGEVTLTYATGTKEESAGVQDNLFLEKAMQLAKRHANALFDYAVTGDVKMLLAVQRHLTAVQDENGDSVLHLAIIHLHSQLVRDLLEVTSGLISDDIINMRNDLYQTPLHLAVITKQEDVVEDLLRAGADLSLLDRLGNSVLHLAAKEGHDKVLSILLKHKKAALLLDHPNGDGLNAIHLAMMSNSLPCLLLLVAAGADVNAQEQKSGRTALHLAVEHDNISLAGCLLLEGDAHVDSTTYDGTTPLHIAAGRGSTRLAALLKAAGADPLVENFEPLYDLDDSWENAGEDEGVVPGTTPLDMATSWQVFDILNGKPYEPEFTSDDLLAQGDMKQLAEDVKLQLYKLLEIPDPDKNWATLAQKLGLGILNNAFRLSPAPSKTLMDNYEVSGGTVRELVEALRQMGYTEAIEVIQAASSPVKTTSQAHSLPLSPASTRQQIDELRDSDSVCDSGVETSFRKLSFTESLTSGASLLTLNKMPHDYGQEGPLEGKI
T1 sequence (Q00653 whole entry, looked up): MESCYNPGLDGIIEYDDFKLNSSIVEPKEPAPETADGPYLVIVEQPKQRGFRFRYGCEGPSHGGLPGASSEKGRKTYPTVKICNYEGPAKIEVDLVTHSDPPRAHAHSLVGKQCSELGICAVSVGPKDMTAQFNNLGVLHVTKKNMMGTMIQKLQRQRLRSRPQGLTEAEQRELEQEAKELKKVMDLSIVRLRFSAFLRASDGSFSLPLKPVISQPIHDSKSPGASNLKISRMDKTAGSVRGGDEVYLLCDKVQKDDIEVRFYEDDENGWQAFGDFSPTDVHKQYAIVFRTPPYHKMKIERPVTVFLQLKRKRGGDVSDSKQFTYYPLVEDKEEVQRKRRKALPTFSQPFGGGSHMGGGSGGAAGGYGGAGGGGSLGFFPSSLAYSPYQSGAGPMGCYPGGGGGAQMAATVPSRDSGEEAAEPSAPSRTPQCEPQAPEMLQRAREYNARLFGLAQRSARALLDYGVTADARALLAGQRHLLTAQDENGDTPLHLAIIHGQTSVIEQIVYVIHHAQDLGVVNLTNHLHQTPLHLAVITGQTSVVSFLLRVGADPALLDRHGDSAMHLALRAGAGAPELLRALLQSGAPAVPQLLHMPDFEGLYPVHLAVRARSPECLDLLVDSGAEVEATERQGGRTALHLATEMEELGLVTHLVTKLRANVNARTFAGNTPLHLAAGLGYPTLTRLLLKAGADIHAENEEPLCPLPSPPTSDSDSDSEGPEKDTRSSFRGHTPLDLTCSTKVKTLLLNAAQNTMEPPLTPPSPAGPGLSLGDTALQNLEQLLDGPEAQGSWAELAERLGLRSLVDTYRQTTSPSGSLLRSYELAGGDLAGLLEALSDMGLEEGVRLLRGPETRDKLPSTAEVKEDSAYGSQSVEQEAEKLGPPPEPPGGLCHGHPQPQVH
T1 sequence (Q04206 whole entry, looked up): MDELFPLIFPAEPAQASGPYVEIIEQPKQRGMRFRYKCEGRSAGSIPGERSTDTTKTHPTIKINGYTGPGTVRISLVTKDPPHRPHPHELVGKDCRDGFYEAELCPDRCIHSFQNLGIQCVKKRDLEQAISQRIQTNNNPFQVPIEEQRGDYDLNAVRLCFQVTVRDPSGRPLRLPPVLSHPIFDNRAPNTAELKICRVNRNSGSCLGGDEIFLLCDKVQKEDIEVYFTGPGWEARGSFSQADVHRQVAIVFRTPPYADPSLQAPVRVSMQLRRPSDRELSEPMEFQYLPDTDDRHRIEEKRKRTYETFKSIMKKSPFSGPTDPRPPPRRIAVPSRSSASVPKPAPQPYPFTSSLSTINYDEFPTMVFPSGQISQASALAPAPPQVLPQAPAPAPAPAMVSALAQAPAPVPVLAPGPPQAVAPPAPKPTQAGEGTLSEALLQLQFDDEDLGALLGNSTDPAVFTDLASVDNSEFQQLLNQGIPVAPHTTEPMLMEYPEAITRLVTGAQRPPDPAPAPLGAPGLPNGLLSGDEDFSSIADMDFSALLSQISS

Row | inhibition [1] | inhibition [2] | inhibition [5] | inhibition [6] | Inhibition of LPS-induced p65 expression [8] | inhibition ([5]; concentration not given here) | inhibition ([6]; concentration not given here) | SMILES | Activity (U-937 [3]) | Activity (U-937 [4]) | Activity (U-937 [7])
1 | Active | Active | Active | Active | – | – | – | COc1ccc2c(c1)[C@@H](c1ccccc1)[C@H](c1ccccc1)O2 [listing 1 of 2 here] | Active | Active | –
2 | Active | Active | – | – | Active | 43% | 28% | COc1ccc2c(c1)[C@@H](c1ccccc1)[C@H](c1ccccc1)O2 (mixture of isomers) | Active | Active | –
3 | Active | Active | – | Active | Active | 32% | – | COc1ccc2c(c1)C(c1ccccc1)C(c1ccccc1)O2 (racemic) | Active | Active | –
4 | Active | Active | – | – | Active | – | – | COc1ccc2c(c1)[C@@H](c1ccccc1)[C@H](c1ccccc1)O2 (single isomer, unassigned) | – | – | –
5 | Active | Active | – | – | Active | – | – | COc1ccc2c(c1)[C@@H](c1ccc(Br)cc1)[C@@H](c1ccccc1)O2 | Active | Active | Non-Toxic
6 | Active | Active | – | – | Active | – | – | COc1ccc2c(c1)[C@@H](c1ccc(Br)cc1)[C@H](c1ccccc1)O2 | Active | Active | Non-Toxic

Second part, the molecule before the results:

Row | SMILES | inhibition [1] | inhibition [2] | inhibition [5] | inhibition [6] | Inhibition of LPS-induced p65 expression [8] | inhibition ([5]; concentration not given here) | inhibition ([6]; concentration not given here) | Activity (U-937 [3]) | Activity (U-937 [4]) | Activity (U-937 [7])
7 | CO[C@@]1(c2ccccc2)c2ccccc2O[C@H]1c1ccccc1 | Active | Active | – | – | Active | – | – | Active | Active | Non-Toxic
8 | COc1ccc2c(c1)C(c1cc(Br)cc(Br)c1)C(c1ccccc1)O2 (stereo not given) | – | – | – | – | – | – | – | – | – | Non-Toxic
9 | COc1ccc2c(c1)[C@@H](c1ccccc1)[C@H](c1ccccc1)O2 [listing 2 of 2 here] | – | – | – | – | – | – | – | – | – | Non-Toxic
10 | COC1(c2ccc(Br)cc2)c2ccccc2OC1c1ccccc1 (mixture of isomers) | – | – | – | – | Active | – | – | – | – | Toxic
